Measurements as given in ChEMBL document CHEMBL1201862, “PubChem BioAssay data set” (2004).
Each block holds one compound with its values, some of them ahead of it. Calls of active or inactive are those of the source.

Columns and labels:
[1] = target: T1, Probable nicotinate-nucleotide adenylyltransferase (Staphylococcus aureus (strain N315), UniProt P65502); format: functional, Staphylococcus aureus subsp. aureus N315;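 for IC50 Mean: confirmatory dose-response retesting of NadD inhibitor hits first found in an ultra-high-throughput screen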
[2] = target: T1, Probable nicotinate-nucleotide adenylyltransferase; format: functional, Staphylococcus aureus subsp. aureus N315; settings: read-out: IC50_Mean
[3] = target: ADP-ribosylation factor GTPase-activating protein 1 (Rattus norvegicus, UniProt Q62848); assay: Fluorescence polarization-based biochemical high throughput dose response screening assay to identify inhibitors of ADP-ribosylation factor GTPase activating protein 1 (ARFGAP1).; format: functional
[4] = target: T2, Apoptotic protease-activating factor 1 (Homo sapiens, UniProt O14727); assay: SAR analysis of small molecule Activators of Apaf-1 in a Fluorescent assay.; format: functional; settings: read-out: EC50_Mean;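 note: caspase-3 cleavage of fluorogenic Rh110 DEVD substrate downstream of apoptosome activation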
T2 sequence (O14727 whole entry): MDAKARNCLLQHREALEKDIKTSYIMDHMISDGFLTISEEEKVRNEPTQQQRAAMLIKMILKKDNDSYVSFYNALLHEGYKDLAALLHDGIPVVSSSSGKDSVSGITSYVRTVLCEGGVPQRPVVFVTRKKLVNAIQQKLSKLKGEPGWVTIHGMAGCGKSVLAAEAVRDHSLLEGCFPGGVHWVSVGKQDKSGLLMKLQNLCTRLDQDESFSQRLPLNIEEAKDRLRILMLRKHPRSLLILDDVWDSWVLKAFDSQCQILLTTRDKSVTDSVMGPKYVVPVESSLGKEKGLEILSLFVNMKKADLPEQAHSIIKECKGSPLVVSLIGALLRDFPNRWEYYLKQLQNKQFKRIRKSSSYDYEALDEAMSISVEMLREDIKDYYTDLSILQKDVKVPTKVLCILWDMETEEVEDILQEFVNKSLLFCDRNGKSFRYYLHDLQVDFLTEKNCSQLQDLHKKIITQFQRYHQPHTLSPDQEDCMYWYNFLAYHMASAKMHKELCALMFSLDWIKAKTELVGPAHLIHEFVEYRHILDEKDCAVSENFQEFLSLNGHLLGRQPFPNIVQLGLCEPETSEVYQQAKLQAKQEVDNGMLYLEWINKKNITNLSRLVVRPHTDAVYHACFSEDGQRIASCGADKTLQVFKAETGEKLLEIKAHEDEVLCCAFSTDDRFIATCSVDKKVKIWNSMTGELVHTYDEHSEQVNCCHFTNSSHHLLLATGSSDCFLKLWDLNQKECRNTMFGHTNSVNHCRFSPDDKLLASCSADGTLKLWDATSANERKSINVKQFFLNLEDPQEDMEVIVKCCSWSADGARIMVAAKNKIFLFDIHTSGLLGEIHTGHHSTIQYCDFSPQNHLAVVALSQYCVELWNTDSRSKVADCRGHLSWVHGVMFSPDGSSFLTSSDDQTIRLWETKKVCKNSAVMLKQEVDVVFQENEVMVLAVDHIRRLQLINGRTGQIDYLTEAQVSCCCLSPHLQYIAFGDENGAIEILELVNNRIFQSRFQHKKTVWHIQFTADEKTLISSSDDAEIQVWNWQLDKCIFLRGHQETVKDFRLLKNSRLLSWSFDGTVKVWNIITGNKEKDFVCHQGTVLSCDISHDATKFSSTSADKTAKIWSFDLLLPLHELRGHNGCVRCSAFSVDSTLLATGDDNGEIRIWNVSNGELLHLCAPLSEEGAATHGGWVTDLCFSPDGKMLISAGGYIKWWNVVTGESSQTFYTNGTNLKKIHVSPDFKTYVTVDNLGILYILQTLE

[5] = target: T3, Small ubiquitin-related modifier 1 (Homo sapiens, UniProt P63165); assay: inhibitors of SUMO1 partner interactions, dose response, biochemical, FRET (AID 624383); format: functional; settings: read-out: IC50_Mean
[6] = target: T3, Small ubiquitin-related modifier 1; assay: inhibitors of SUMO1 peptide binding, dose response, biochemical, fluorescence polarization, uHTS hits (AID 624382); format: functional; settings: read-out: IC50_Mean
[7] = target: T4, SUMO-activating enzyme (Homo sapiens, UniProt Q9UBT2); assay: SUMOylation inhibitor hit validation, confirmation, SUMOylation inhibitor project, biochemical, AlphaScreen (AID 2018); format: functional
[8] = target: T4, SUMO-activating enzyme; assay: inhibitors of in vitro SUMOylation cascade, primary screen, biochemical, HTRF, uHTS (AID 2006); format: protein-complex assay
[9] = target: DNA (cytosine-5)-methyltransferase 1 (Homo sapiens, UniProt P26358); assay: DNMT1 methyltransferase inhibitors, confirmation, biochemical, fluorescent molecular beacon (AID 602386); format: functional
[10] = inhibitors of intracellular T. cruzi replication, confirmation, NIH3T3 host cells, beta-gal luminescence (AID 2044); format: functional, cell-based;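 note: intracellular parasites grown in NIH/3T3 mouse fibroblasts as host cells; luminescent beta-galactosidase reporter signal from transgenic T. cruzi replicating inside host cells; inhibitors lower the luminescence signal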
[11] = cytotoxicity toward NIH3T3 fibroblasts, dose response, counter-screen, cell-based, ATP luminescence, mouse fibroblasts (AID 2010); format: functional;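 note: cells exposed to compound for about 90 hours before reading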
[12] = target: Prothrombin (Bos taurus, UniProt P00735); assay: thrombin inhibition, dose response, biochemical, fluorescence polarization, uHTS hits (AID 602369); format: functional
[13] = target: 26S proteasome non-ATPase regulatory subunit 14 (Homo sapiens, UniProt O00487); assay: inhibition of proteasome subunit RPN11 – biochemical, fluorescence polarization, uHTS hits, confirmation (AID 602368); format: functional
[14] = target: 72 kDa type IV collagenase (Homo sapiens, UniProt P08253); assay: Dose Response validation of uHTS RPN11 inhibitor hits using a MMP-2 Fluorescence assay.; format: functional
[15] = half-maximal inhibitory concentration for glucagon-like peptide-1 release, STC-1 cell line, dose-response (AID 1117345); format: functional, cell-based
[16] = target: T5, Small ubiquitin-related modifier 2 (Homo sapiens, UniProt P61956); assay: SUMO2–SIM peptide binding inhibitors, dose response, selectivity assay for SUMO1 interaction inhibitor project, biochemical, fluorescence polarization, uHTS hits (AID 624385); format: functional; settings: read-out: IC50_Mean
[17] = Glucagon-like peptide 1 release potency, NCI-H716 cell line, dose-response, half-maximal inhibitory concentration (AID 1117344); format: functional, cell-based
[18] = target: T5, Small ubiquitin-related modifier 2; assay: inhibitors of SUMO2 protein-protein interaction, dose response, selectivity assay for SUMO1 interaction inhibitor project, biochemical, FRET, human SUMO2, uHTS hits (AID 624384); format: functional; settings: read-out: IC50_Mean

T3 sequence (P63165 whole entry): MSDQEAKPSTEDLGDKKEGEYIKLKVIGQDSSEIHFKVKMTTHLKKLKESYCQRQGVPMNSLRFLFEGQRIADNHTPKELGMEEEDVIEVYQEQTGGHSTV
T4 sequence (Q9UBE0 whole entry): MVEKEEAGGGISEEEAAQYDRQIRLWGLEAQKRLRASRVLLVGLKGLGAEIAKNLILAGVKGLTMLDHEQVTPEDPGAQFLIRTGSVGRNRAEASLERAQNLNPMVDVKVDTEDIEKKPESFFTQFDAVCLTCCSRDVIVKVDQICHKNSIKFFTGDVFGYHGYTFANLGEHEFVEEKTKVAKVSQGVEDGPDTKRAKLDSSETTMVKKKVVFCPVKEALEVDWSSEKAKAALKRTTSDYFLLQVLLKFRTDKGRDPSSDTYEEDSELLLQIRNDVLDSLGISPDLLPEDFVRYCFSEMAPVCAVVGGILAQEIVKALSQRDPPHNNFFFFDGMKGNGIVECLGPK
T4 sequence (Q9UBT2 whole entry): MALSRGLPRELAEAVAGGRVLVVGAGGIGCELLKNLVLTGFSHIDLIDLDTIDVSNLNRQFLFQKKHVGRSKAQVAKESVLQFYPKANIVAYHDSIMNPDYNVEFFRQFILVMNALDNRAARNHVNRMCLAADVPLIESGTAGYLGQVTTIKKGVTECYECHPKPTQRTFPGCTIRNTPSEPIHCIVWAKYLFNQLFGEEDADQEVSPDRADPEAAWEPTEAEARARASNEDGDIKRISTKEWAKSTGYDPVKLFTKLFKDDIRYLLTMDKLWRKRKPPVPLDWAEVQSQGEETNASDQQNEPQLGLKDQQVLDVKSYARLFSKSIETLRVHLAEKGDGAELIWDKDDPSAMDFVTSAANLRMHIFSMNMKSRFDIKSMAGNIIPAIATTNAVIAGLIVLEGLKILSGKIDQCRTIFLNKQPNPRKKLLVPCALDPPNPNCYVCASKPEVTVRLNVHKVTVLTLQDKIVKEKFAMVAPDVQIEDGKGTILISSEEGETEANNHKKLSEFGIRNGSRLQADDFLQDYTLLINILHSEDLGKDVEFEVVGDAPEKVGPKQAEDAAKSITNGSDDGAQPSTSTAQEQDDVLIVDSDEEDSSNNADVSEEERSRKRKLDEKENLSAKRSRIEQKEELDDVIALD
T5 sequence (P61956 whole entry): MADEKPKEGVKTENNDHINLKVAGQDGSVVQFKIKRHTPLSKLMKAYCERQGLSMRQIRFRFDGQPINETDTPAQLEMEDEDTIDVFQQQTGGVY
72 kDa type IV collagenase, sequence (P08253 whole entry): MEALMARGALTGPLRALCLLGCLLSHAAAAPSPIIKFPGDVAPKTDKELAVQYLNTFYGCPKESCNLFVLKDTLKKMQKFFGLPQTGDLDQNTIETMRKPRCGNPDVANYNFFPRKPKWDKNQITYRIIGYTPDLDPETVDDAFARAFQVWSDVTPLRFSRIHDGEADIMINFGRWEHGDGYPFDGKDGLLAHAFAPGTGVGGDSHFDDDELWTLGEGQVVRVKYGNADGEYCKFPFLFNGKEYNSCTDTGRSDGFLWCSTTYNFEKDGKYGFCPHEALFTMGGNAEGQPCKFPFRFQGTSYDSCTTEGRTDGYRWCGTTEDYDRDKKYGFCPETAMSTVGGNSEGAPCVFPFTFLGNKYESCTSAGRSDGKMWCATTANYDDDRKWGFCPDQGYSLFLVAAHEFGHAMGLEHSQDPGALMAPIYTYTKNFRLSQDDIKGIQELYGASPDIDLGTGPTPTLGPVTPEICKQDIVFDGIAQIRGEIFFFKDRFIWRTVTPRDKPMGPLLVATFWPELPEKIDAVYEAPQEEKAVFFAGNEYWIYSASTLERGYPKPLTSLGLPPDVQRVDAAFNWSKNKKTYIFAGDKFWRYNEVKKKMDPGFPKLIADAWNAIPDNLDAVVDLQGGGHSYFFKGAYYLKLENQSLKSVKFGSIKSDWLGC
ADP-ribosylation factor GTPase-activating protein 1, sequence (Q62848 whole entry): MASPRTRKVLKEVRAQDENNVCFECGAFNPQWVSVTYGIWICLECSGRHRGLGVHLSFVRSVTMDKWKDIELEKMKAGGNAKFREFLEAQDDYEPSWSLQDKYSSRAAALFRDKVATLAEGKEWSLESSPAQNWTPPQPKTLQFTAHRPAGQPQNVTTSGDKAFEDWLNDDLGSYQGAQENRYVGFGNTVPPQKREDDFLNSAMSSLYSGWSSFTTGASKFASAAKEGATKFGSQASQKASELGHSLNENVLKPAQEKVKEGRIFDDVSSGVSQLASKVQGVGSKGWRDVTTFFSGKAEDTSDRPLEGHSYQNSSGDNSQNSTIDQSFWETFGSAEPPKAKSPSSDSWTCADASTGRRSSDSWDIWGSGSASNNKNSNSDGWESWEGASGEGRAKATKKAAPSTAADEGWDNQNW
DNA (cytosine-5)-methyltransferase 1, sequence (P26358 whole entry): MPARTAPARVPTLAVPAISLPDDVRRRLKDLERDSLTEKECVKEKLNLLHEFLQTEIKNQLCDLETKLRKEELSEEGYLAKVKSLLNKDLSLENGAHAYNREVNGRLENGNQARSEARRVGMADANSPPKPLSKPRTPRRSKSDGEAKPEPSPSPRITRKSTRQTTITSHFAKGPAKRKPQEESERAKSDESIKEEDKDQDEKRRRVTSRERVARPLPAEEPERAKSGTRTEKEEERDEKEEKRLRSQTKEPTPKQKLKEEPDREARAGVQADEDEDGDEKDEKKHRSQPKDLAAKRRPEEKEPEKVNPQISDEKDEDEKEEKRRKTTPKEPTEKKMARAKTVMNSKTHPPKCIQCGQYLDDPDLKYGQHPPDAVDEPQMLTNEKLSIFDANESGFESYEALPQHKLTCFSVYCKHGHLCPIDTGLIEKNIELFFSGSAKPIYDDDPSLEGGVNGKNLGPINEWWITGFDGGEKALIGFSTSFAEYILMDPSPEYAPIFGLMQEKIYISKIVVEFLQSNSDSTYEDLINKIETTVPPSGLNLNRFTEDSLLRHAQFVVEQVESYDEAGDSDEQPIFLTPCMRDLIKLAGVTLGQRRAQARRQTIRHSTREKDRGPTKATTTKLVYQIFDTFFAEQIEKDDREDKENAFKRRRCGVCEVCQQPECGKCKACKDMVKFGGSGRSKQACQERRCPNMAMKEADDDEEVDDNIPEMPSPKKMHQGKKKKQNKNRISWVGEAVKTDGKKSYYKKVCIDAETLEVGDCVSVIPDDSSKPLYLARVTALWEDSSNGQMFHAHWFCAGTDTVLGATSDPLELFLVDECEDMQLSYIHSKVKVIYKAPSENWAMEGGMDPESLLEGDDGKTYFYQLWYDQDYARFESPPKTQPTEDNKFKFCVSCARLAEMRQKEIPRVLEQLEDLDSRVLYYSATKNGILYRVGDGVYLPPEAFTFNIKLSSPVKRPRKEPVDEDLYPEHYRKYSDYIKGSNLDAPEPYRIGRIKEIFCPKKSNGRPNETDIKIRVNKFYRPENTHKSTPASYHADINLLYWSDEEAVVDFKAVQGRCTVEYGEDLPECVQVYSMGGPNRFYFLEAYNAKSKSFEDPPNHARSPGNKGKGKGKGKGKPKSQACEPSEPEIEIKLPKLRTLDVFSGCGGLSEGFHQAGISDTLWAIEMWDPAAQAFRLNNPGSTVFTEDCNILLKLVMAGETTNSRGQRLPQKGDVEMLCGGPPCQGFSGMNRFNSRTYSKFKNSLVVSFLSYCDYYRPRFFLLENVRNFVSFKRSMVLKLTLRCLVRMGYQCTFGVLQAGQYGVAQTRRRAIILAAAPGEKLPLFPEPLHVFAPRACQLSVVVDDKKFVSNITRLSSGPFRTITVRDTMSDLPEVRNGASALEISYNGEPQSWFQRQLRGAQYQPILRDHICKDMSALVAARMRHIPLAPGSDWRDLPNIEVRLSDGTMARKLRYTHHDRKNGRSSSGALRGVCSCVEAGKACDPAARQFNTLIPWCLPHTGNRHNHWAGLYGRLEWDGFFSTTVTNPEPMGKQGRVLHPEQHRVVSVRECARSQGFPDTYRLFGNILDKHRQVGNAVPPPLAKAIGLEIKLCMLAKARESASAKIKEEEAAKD
26S proteasome non-ATPase regulatory subunit 14, sequence (O00487 whole entry): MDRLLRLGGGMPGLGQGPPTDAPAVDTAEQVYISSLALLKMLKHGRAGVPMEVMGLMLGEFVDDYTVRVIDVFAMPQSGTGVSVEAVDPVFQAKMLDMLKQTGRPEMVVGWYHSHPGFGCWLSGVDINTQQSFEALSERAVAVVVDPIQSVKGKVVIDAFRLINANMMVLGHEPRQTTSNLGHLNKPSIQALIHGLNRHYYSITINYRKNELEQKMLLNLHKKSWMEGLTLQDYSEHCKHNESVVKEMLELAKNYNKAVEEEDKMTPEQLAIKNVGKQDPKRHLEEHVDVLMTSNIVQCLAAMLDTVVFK

IC50 [1]: 13 µM (active)
IC50 [2]: 32.9 µM (active)
SMILES: N#Cc1c(SCc2c(Cl)cccc2Cl)nc(N)[nH]c1=S

IC50 [3]: 40.7 µM (inactive)
SMILES: CCC(=O)Nc1ccc(NC(=O)CSc2nnnn2-c2ccc3c(c2)OCCO3)cc1

EC50 [4]: > 100 µM (inactive)
SMILES: O=C1CC2(CC(c3ccc(Cl)cc3)=NO2)C(=O)N1c1cccc(Cl)c1 (stereo not given)

SMILES: C/C(=N\NC(=O)c1cc(O)cc(O)c1)c1ccc(NC(=O)Cc2ccccc2)cc1
IC50 [5]: 12 µM (active)
IC50 [6]: 50.1 µM (inactive)
IC50 [7]: 0.74 µM (active)
IC50 [8]: 9.77 µM (active)
IC50 [9]: 4.69 µM (active)

SMILES: O=C(N/N=C\c1ccc(-c2ccc([N+](=O)[O-])cc2)o1)C1COc2ccccc2O1 (stereo not given)
EC50 [10]: 0.62 µM (active)
EC50 [11]: > 60 µM (not active)
IC50 [12]: 36.4 µM (active)
IC50 [13]: 28.2 µM (active)
IC50 [14]: > 100 µM (inactive)

SMILES: [O-][S+](c1cc(Cl)cc(Cl)c1O)c1cc(Cl)cc(Cl)c1O [BITHIONOLOXIDE]
IC50 [15]: > 40 µM (inactive)
IC50 [5]: 9.66 µM (active)
IC50 [16]: 3.55 µM (active)
IC50 [6]: 0.876 µM (active)
IC50 [17]: 19.7 µM (inactive)
IC50 [18]: 43.3 µM (inactive)
